According to patent US20250197846A1, “TAGMENTATION WORKFLOW” (ILLUMINA, INC., priority 2022, published 2025):
Entries after “also recorded” stand apart in the source; their conditions may differ.

Test system: Tn5 transposase enzyme bound to tagmented DNA (tagmented DNA complex), Mg^2+ cofactor
Test: Removal of Tn5 transposase from tagmented DNA complex after tagmentation with Mg2+ cofactor (library yield and insert size profile after PCR)
Description: As such Mg^2+ was the divalent cation cofactor.
In the workflow for experiment A: DNA was first tagmented, appending the transferred strand of the adaptor to the 5′ ends of the tagmented DNA, and then treated with water (not sodium dodecyl sulfate (SDS)), thus keeping the Tn5 bound to the tagmented DNA. The tagmented DNA complex was washed and subjected to PCR (including high temperature heating which may dissociate the Tn5) to append adaptor sequences to the 3′ ends of the tagmented DNA.
In the workflow for experiment, B: DNA was first tagmented, appending the transferred strand of the adaptor to the 5′ ends of the tagmented DNA, and then was treated with SDS to denature the Tn5 enzyme, thus dissociating it from the tagmented DNA complex. The SDS was washed away and the tagmented DNA fragments were exposed to PCR to append adaptor sequences to the 3′ ends of the tagmented DNA.
Some of the supernatant was analyzed using a TapeStation. The size profile and yield of the tagmented DNA fragments from experiments A and B were measured using the TapeStation.
As such, Mg^2+ was the divalent cation cofactor.
In the workflow for experiment A: DNA was first tagmented, appending the transferred strand of the adaptor to the 5′ ends of the tagmented DNA. Tn5 was removed by adding 1% SDS and incubating for 5 minutes at 25° C.
In the workflow for experiment B: DNA was first tagmented, appending the transferred strand of the adaptor to the 5′ ends of the tagmented DNA. […] In experiment B, the transposase removal fluid included 100 mM Tris-HCl, pH 8.6, 100 mM NaCl, and 0.6 mM EDTA.
In the workflow for experiments A and B: DNA was first tagmented, appending the transferred strand of the adaptor to the 5′ ends of the tagmented DNA. Tn5 was removed by adding 1% SDS and incubating for 5 minutes at 25° C.
In the workflow for experiments C and D: DNA was first tagmented, appending the transferred strand of the adaptor to the 5′ ends of the tagmented DNA.
For each of these experiments, the tagmentation buffer included water, 4% DMF, 2 mM magnesium acetate, and 4 mM tris acetate salt, pH 7.6. As such Mg^2+ was the divalent cation cofactor.
In the workflow for experiment B: DNA was first tagmented, appending the transferred strand of the adaptor to the 5′ ends of the tagmented DNA. […] In experiment B, the transposase removal fluid included 140 mM Tris, pH 8.8, 100 mM KCl, and 1.8 mM EDTA. […] The sample was processed under Extension-Ligation and PCR-cycling conditions with a ligase, non-strand displacing polymerase and Q5 polymerase in a buffer base with 2.4 mM Magnesium.
In the workflow for experiment A: DNA was first tagmented using the Mg^2+ tagmentation buffer described in this example, appending the transferred strand of the adaptor to the 5′ ends of the tagmented DNA. Tn5 was removed by adding 1% SDS and incubating for 5 minutes at 25° C.
In the workflow for experiment D: DNA was first tagmented using the Mg^2+ tagmentation buffer described in this example, appending the transferred strand of the adaptor to the 5′ ends of the tagmented DNA.
In the workflow for experiment A: DNA was first tagmented, appending the transferred strand of the adaptor to the 5′ ends of the tagmented DNA. […] In experiment A, the transposase removal fluid included 500 mM Tris, pH 8.6, 100 mM NaCl, and 15 mM 2-hydroxy-4-oxo-4-thiophen-2-yl-but-2-enoic acid integrase inhibitor. […]

Compound	Dissociation of Tn5 enzyme from tagmented DNA complex (yield and insert size profile, FIG. 5) (Example 2, supernatant discarded, 100 mM Tris-HCl pH 8.6, 100 mM NaCl, 0.6 mM EDTA, 1 minute at 60° C., compared with 1% SDS)	Dissociation of Tn5 from tagmented DNA complex (size profile and yield, FIG. 6) (Example 3, applied directly without removing supernatant, 100 mM Tris-HCl pH 8.6, 100 mM NaCl, 6 mM EDTA, 1 minute at 60° C.)	Dissociation of Tn5 from tagmented DNA complex (size profile and yield, FIG. 7) (Example 4, 140 mM Tris pH 8.8, 100 mM KCl, 1.8 mM EDTA, 1 minute at 60° C., extension-ligation and PCR added directly with 2.4 mM magnesium)	Tn5 removal from the tagmented product complex (yield and insert size profile, FIG. 4) (Example 1, SDS treatment versus water and high temperature heating of PCR, Mg2+ cofactor, sulfate)
O=C(O)CN(CCN(CC(=O)O)CC(=O)O)CC(=O)O [EDTA, ethylenediaminetetraacetic acid]	sufficient to replace SDS as a reagent for dissociating the Tn5 enzyme from a tagmented DNA complex	can effectively dissociate Tn5 from the tagmented DNA complex	can dissociate Tn5 from the tagmented DNA complex	
CCCCCCCCCCCCOS(=O)(=O)[O-].[Na+] [SDS, sodium dodecyl sulfate]				more effective than heating alone; also recorded: more effective in removing Tn5 from the tagmented product complex than the high temperature heating used in PCR
